Values quoted from earlier work in article PMC9668914, “Understanding VPAC receptor family peptide binding and selectivity” (Nature Communications, 2022).

Molecular target: T1, PAC1R (Homo sapiens, UniProt P41586)
T1 construct: An HA signal peptide was inserted in place of the native signal peptide of the receptors; HA signal peptide (replaces the native signal peptide) (N); 3C protease cleavage sites (between FLAG and receptor, and between receptor and His) (internal); expressed in transfected cells; host or cells: COS-7 (transient, PEI)
T1 sequence (P41586 21-468): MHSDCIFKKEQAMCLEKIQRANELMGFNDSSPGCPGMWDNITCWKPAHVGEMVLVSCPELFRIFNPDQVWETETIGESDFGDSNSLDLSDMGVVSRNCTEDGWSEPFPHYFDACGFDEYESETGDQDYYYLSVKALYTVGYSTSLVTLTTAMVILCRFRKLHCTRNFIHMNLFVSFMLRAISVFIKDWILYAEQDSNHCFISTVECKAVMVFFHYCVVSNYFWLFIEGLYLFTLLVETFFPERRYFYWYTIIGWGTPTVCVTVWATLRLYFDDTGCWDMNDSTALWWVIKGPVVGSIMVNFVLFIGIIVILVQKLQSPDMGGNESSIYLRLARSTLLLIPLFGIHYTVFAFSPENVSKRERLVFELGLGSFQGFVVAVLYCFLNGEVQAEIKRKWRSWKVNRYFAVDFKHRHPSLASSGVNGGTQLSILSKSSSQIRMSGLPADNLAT
Design: method as in PMID 8995389
Conditions: cited from earlier work

In the case of maxadilan, the agonist selectivity is listed as “PAC1R-selective agonist”.
